According to ChEMBL document CHEMBL1139737, “Distachyasin: A new antioxidant metabolite from the leaves of Carex distachya” (Bioorg Med Chem Lett, 2006):

What was measured:
Type in all cases: functional
[1] = Inhibition of TBARS formation
[2] = Superoxide radical scavenging activity at 0.5 mg/ml
[3] = Hydrogen peroxide radical scavenging activity at 0.1 mg/ml
[4] = Hydrogen peroxide radical scavenging activity at 0.2 mg/ml
[5] = Nitric oxide radical scavenging activity assessed as reduction in nitrite concentration at 0.5 mg/ml; design: scale not given: the % may be the effect or the level left
[6] = Nitric oxide radical scavenging activity
[7] = Inhibition of TBARS formation at 0.5 mg/ml

COC1=CC(=O)[C@@]2(O)C[C@H]3[C@H](c4ccccc4C3(C)C)[C@@H](O)C2=C1
Activity [1]: Dose-dependent effect
Activity [2]: 60%
Activity [3]: 32%
Activity [4]: 39%
Activity [5]: 10.7%
Activity [6]: Dose-dependent effect
inhibition [7]: 59%
